# Reference: US20080312253A1, “Pharmaceutical compositions containing pyrazole derivatives for treating as serotonin antagonist” (KOREA INSTITUTE OF SCIENCE AND TECHNOLOGY, priority 2007, published 2008)
# Key:
# [1] = target: T1, serotonin 5-HT3A receptor (Homo sapiens, UniProt P46098); test: Assay for 5-HT3A receptor: two-electrode voltage clamp of 5-HT-induced inward current in Xenopus oocytes expressing 5-HT3A receptor; assay type: cell-based; conditions: inhibition of inward current (I5-HT) induced by 5-HT (1 μM), Xenopus laevis oocytes, from concentration-response curves; for IC50: read-out: IC50 (50% inhibitory concentration); for inhibition: read-out: maximum inhibition value (Vmax)
# T1 sequence (P46098 24-478): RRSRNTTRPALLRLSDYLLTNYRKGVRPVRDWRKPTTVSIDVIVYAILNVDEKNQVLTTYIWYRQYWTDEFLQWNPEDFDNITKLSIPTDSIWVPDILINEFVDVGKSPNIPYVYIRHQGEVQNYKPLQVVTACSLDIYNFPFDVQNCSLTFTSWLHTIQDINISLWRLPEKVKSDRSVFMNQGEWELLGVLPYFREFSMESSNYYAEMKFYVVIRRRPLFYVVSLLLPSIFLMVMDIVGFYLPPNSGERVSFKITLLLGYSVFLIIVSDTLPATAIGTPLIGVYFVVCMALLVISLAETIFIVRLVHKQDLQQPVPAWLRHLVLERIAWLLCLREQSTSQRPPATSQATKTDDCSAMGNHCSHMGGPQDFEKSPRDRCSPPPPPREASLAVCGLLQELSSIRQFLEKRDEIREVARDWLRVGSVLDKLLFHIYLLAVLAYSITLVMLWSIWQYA
Compound,Hill coefficient (nH) [1],IC50 [1] [µM],inhibition [1] [%],maximum inhibition value (Vmax) [1],melting point [°C]
"Clc1ccc(N2CCN(CCNCc3cc(-c4ccc(N5CCCCC5)cc4)n(-c4ccccc4)n3)CC2)cc1 [Compound 10, 1-Phenyl-3-{2-[4-(4-chlorophenyl)piperazin-1-yl]ethyl}aminomethyl-5-4-(N-piperidyl)phenylpyrazole]",1.9 ± 0.1,6.4 ± 0.3,95.9 ± 1.6,,
1-t-Butyl-3-{2-[4-(4-chlorophenyl)piperazin-1-yl]ethyl}aminomethyl-5-propylpyrazole [Compound 4],1.4 ± 0.3,1.3 ± 0.3,,97.3 ± 5.6,
"CC(C)Cc1cc(CNCCN2CCN(c3ccc(Cl)cc3)CC2)nn1C(C)(C)C [Compound 7, 1-t-Butyl-3-{2-[4-(4-chlorophenyl)piperazin-1-yl]ethyl}aminomethyl-5-isobutylpyrazole]",1.4 ± 0.4,3.3 ± 0.9,104 ± 3.5,,133 to 134
"Cc1cc(CNCCN2CCN(c3cccc(Cl)c3)CC2)[nH]n1 [Compound 2, 3-{2-[4-(3-Chlorophenyl)piperazin-1-yl]ethyl}aminomethyl-5-methylpyrazole]",1.0 ± 0.1,9.6 ± 1.1,90.6 ± 2.7,,
"CN1[C@@H]2CC[C@H]1C[C@@H](OC(=O)c1cc(Cl)cc(Cl)c1)C2 [MDL72222, reference compound]",1.25 ± 0.27,,99.6 ± 7.7,,
1-Phenyl-3-{2-[4-(4-chlorophenyl)piperazin-1-yl]ethyl}aminomethyl-5-methylpyrazole [Compound 3],1.4 ± 0.1,2.5 ± 0.3,,98.5 ± 1.2,
"Clc1cccc(N2CCN(CCNCc3cc(-c4ccco4)n(-c4ccccc4)n3)CC2)c1 [Compound 1, 1-Phenyl-3-{2-[4-(3-chlorophenyl)piperazin-1-yl]ethyl}aminomethyl-5-(2-furyl)pyrazole]",1.5 ± 0.2,9.4 ± 0.7,95.9 ± 2.8,,
"Cc1ccc(-c2cc(CNCCN3CCN(c4ccc(Cl)cc4)CC3)nn2-c2ccccc2)cc1 [Compound 12, 1,5-Diphenyl-3-{2-[4-(4-chlorophenyl)piperazin-1-yl]ethyl}aminomethyl-5-toluylpyrazole]",,2.2 ± 0.2,95.5 ± 3.5,,

# Continued by falling IC50 [1], values first:
Hill coefficient (nH) [1],IC50 [1] [µM],inhibition [1] [%],maximum inhibition value (Vmax) [1],melting point [°C],Compound
2.2 ± 0.4,8.2 ± 0.8,,73.1 ± 3.1,,1-Phenyl-3-{2-[4-(4-chlorobenzhydryl)piperazin-1-yl]ethyl}aminomethyl-5-toluylpyrazole [Compound 13]
2.0 ± 0.2,4.3 ± 0.3,97.3 ± 2,,,"Clc1ccc(N2CCN(CCNCc3cc(-c4ccco4)n(-c4ccccc4)n3)CC2)cc1 [Compound 8, 1-Phenyl-3-{2-[4-(4-chlorophenyl)piperazin-1-yl]ethyl}aminomethyl-5-(2-furyl)pyrazole]"
1.1 ± 0.1,3.1 ± 0.3,101 ± 2.6,,,"Clc1ccc(N2CCN(CCNCc3cc(-c4ccccc4)n(-c4ccccc4)n3)CC2)cc1 [Compound 11, 1,5-Diphenyl-3-{2-[4-(4-chlorophenyl)piperazin-1-yl]ethyl}aminomethyl-5-pyrazole]"
1.2 ± 0.1,2.8 ± 0.2,103 ± 2.5,,,"CC(C)Cc1cc(CNCCN2CCN(c3ccc(Cl)cc3)CC2)nn1-c1ccccc1 [Compound 6, 1-Phenyl-3-{2-[4-(4-chlorophenyl)piperazin-1-yl]ethyl}aminomethyl-5-isobutylpyrazole]"
,2.4 ± 0.4,103 ± 6.5,,,Cc1ccc(-c2cc(CNCCN3CCN(c4ccc(Cl)cc4)CC3)nn2C(C)(C)C)cc1 [Compound 9]
1.5 ± 0.3,1.3 ± 0.2,94.8 ± 4.8,,,"CCCc1cc(CNCCN2CCN(c3ccc(Cl)cc3)CC2)nn1-c1ccccc1 [Compound 5, 1-Phenyl-3-{2-[4-(4-chlorophenyl)piperazin-1-yl]ethyl}aminomethyl-5-propylpyrazole]"
